From patent US12071624B2, “Antisense oligonucleotide targeting ARL4C molecule, and nucleic acid drug using antisense oligonucleotide” (OSAKA UNIVERSITY, priority 2018, dated 2024)
[AmNA] = 2',4'-bridged nucleic acid with N-methyl amide bridge (AmNA); d = 2'-deoxy (DNA)

Key:
[1] = test system: HLE cells; assay: Primary liver tumor model, HLE cells transplanted into mouse liver; format: in vivo; settings: for HLE tumorigenesis in the liver: 50 μg/body subcutaneously twice a week from day 0, 29 days after transplantation
Procedure: Pellets of HLE cells (1×10^7 cells) were suspended in 100 μl of Matrigel matrix high concentration (BD Biosciences, San Jose, CA, USA) and were injected into the livers of 8-week-old male nude mice (BALB/cAJcl-nu/nu, CLEA Japan, Inc.) under anesthesia (day 0). From day 0, ASO (50 μg/body; about 2.5 mg/kg) was subcutaneously administered twice a week. Mice were euthanized 29 days after the HLE cell transplantation, and tumors were recovered and subjected to histological analysis.
In a primary liver tumor model in which HLE cells were directly transplanted into the liver, influences of the subcutaneous administration of ARL4C ASO (ASO-1316 and ASO-3223) on liver tumors was examined.
In experiments in the primary liver tumor model, Matrigel containing HEL cells at a high concentration was injected into the liver of a mouse (day 0), and control ASO, ASO-1316, and ASO-3223 were subcutaneously administered on and after day 0, at a frequency of twice a week. The tumor formed in the liver was observed when 29 days had elapsed since the transplantation; the result is shown in (a) of FIG. 8. In addition, when 29 days had elapsed since the transplantation, the tumor formed in the liver was immunostained with an anti-ARL4C antibody and an anti-PIK3CD antibody, the result of which is shown in (b) of FIG. 8, and the tumor was immunostained with an anti-Ki-67 antibody, the result of which is shown in (c) of FIG. 8.

[2] = test system: ARL4C mRNA; assay: ARL4C mRNA amount by real-time PCR in HLE cells; format: cell-based, human; settings: for effect of reducing the ARL4C mRNA amount at a low concentration: HLE cells transfected at 0.5 to 25 nM
Procedure: HLE cells, HCT116 cells, and A549 cells were transfected with 25 to 50 nM ASO and 10 to 20 nM siRNA using Lipofectamine 3000 (Invitrogen, Carlsbad, CA, USA) or RNAiMAX (Invitrogen). Transfected cells were used in the experiments 36 to 48 hours after the end of the transfection.
Cell migration assays and quantitative real-time PCR analyses were performed according to the methods reported by Fujii S et al. (Oncogene 2015; 34: 4834-44).
HLE cells and HCT116 cells were transfected with the above-described seven types of ARL4C ASOs and the control ASO at 25 nM, and the ARL4C mRNA amounts were measured by real-time PCR; the results thereof are shown in (a) of FIG. 4. […] In order to optimize the effect of these three types of ARL4C ASOs, four bases were added to each of these three types of ARL4C ASOs, whereby ASO-1312, ASO-1450, and ASO-3223 each of which consisted of 19 bases were produced. With these six types of ARL4C ASOs (ASO-1316, ASO-1312, ASO-1454, ASO-1450, ASO-3225, and ASO-3223), the knockdown effect on ARL4C was further studied.
HLE cells were transfected with ARL4C ASOs (ASO-1316, ASO-1312, ASO-1454, ASO-1450, ASO-3225, and ASO-3223) at 25 nM each, and the ARL4C mRNA amounts were measured by real-time PCR; the results are shown in (c) of FIG. 3. In addition, HLE cells were transfected with ARL4C ASOs (ASO-1316, ASO-1312, ASO-3225, and ASO-3223) at 0.5 to 25 nM each, and the ARL4C mRNA amounts were measured by real-time PCR; the results are shown in (b) of FIG. 4.
HLE cells were treated with 10 μM PD184161 or 10 nM CTNNB1 siRNA (siRNA against CTNNB1), and the ARL4C mRNA amount was measured by real-time PCR; the results are shown in (a) of FIG. 5. In addition, HLE cells were treated with 10 nM CTNNB1 siRNA (siRNA against CTNNB1), and the ARL4C mRNA amount was measured by real-time PCR; the results thereof are shown in (a) of FIG. 6. PD184161 is a compound that inhibits MEK without knocking down […].

[3] = test system: HCT116/Luc cells; assay: Metastatic tumor model, HCT116/Luc cells transplanted into spleen with liver metastasis; format: in vivo, mouse
Procedure: HCT116/Luc cells (2.5×10^5 cells) were suspended in 100 μl of phosphate buffer solution (PBS), and were injected into the spleens of 8-week-old male nude mice (BALB/cAJcl-nu/nu, CLEA Japan, Inc.) under anesthesia. After 19 days had elapsed since the transplantation, ASO (50 μg/body; about 2.5 mg/kg) was subcutaneously administered twice a week. Mice were euthanized 47 days after the HCT116/Luc cell transplantation and were subjected to histological analysis.
Tumor growth analysis was performed by recording bioluminescence images at a frequency of once a week, in the following manner: VivoGlo luciferin (30 mg/ml) was administered intraperitoneally, and 10 minutes after the administration of VivoGlo luciferin, recording was carried out using an IVIS imaging system (Xenogen Corp., Alameda, CA, USA).
In a metastatic tumor model in which HCT116 cells were transplanted into the spleen and the tumor was caused to metastasize to the liver, influences of the subcutaneous administration of ARL4C ASO (ASO-1316 and ASO-3223) on the liver tumor was examined.
In an experiment in the metastatic tumor model, HCT116/Luc cells were injected into the spleens (day 0), luciferase signals were detected in the livers 19 days after the injection; on and after this day, control ASO, ASO-1316, and ASO-3223 were subcutaneously administered at a frequency of twice a week. When 19, 35 and 47 days had elapsed, the fluorescence of luciferase emitted from the liver tumors was observed, and when 47 days had elapsed, fluorescence intensities of luciferase emitted from the liver tumors were quantified with software of IVIS/Kodak; the results are shown in (a) of FIG. 10. […] In addition, when 47 days had elapsed since the transplantation of HCT116/Luc cells, the tumors formed in the livers were observed, and the tumors formed in the livers were immunostained with an anti-ARL4C antibody; the results are shown in (b) of FIG. 10. The tumors formed in the livers were immunostained with an anti-Ki-67 antibody when 47 days had elapsed since the transplantation of HCT116/Luc cells; the results are shown in (c) of FIG. 10.

[4] = subcutaneous twice a week, day 29

Row | Substance | HLE tumorigenesis in the liver [1] | tumor size as compared with the control ASO ([1]; 50 μg/body subcutaneously twice a week, day 29) | expression of ARL4C in tumors formed in the liver (immunostaining) [1, 4] | expression of PIK3CD in tumors formed in the liver (immunostaining) [1, 4] | histological damage or cell death in the non-tumor area of the liver [1, 4] | number of Ki-67-positive cells in liver tumors [1, 4] | ARL4C mRNA amount ([2]; HLE cells transfected at 25 nM) | effect of reducing the ARL4C mRNA amount at a low concentration [2] | growth of liver tumors (luciferase) ([3]; 50 μg/body subcutaneously twice a week from day 19, until day 47) | ARL4C expression level in liver tumor (immunostaining) ([3]; day 47) | number of Ki-67 positive cells in liver tumor ([3]; day 47) | antitumor effect in vivo ([1]; primary liver tumor model) | antitumor effect in the metastatic tumor model ([3]; subcutaneous twice a week from day 19)
1 | ASO-1316: 15-mer AmNA/phosphorothioate ASO targeting ARL4C, base sequence SEQ ID NO: 1 gcatacctcaggtaa; Table 1 SEQ ID NO 13 (antisense GCATACCTCAGGTAA; AmNA and phosphorothioate modified, pattern not given here) | able to suppress the HLE tumorigenesis | reduce the tumor size by half | suppress the expression of ARL4C and PIK3CD | suppress the expression of ARL4C and PIK3CD | did not induce histological damage or cell death | reduce the number of Ki-67-positive cells | reduced the ARL4C mRNA amount | high effects of reducing the ARL4C mRNA amount | the growth of the tumors until 47 days after the injection could be suppressed | decreased ARL4C expression levels | decreased numbers of Ki-67 positive cells |  | 
2 | ASO-3223: 19-mer ARL4C ASO of Table 1, SEQ ID NO 55 (antisense NNNGGTTACAGTATTTNNC; sugars from the 5' end [AmNA]3 d13 [AmNA]2 d1, backbone, methylation of C and the base at N not given here; further chemistry not fully specified) | almost no influence |  | almost no influence | almost no influence |  | almost no influence |  | high effects of reducing the ARL4C mRNA amount |  |  |  | no antitumor effect was observed | did not exert an antitumor effect
